# Experimental data reported in patent US7291451B2, “Modulation of pericyte proliferation” (XOMA Technology Ltd., priority 2000, dated 2007).
# Assays:
# [1] = tested on: MAP kinase phosphorylation; test: MAP kinase phosphorylation in BRPC; format: cell-based, bovine; settings: 5 μg/ml, 1 to 60 minutes
# Protocol: Experiments were also performed in which the level of MAP kinase phosphorylation was determined in BRPC treated with 75 μg/ml rBPI21 or 5 μg/ml XMP.679. […] These observations indicate that exemplary BPI protein products rBPI21 and, to a lesser extent, XMP.679, enhance MAP kinase phosphorylation in BRPC.
# [2] = tested on: retinal neovascularization; test: Oxygen-pulse induced retinal neovascularization in newborn rats; format: in vivo; settings: for retinal neovascular score (sum of quadrant scores): P18, vehicle 6.41
# Protocol: In contrast to the assay for anti-angiogenesis effect of BPI protein products in neonatal mice described in part A above, experiments were conducted in newborn rats Crj:CD(SD)IGS (Charles River, Japan). Unlike the method described in part A above of producing ischemia-induced retinal neovascularization by exposing neonatal mice to a constant level of oxygen at 75±2% for 5 days, newborn rats were exposed to oxygen pulses as described below.
# The newborn rats within a few hours after birth were put into the oxygen chamber (780 mm×520 mm×520 mm). The oxygen level in the experimental chamber was controlled with a computer program (Oxycycler, Reming Bioinstruments, N.Y., US). The oxygen level was maintained at 80% for 20.5 hours, then rapidly dropped to 21% for 30 minutes before a gradual return to 80% during the following 3 hours. The program was run for 11 cycles (24 hour per cycle). At the end of 11th cycle (postnatal day 11 (P11)), mothers and newborn rats were transferred to room air condition and kept for 7 days. For a seven day period step newborn rats were injected intraperitoneally with XMP.679 at doses of 2, 6 and 20 mg/kg. On P18, the rats were sacrificed, and the left eyes were enucleated. The eyes were fixed in 4% paraformaldehyde (PFA) for 1 hour. Using scissors, the cornea and sclera were removed from the eyecup. The lens was removed with tweezers, and the vitreous was thoroughly removed with tweezers and scissors. The semi-spherical retina was fixed in 4% PFA and stained, using the method of adenosine diphosphatase (ADPase) histochemistry. Abnormal neovascularization was assessed on P18 by histochemically staining retina for ADPase activity. This procedure preferentially stains retinal vascular endothelium and microglia in rats of this age. The retina was incubated in ADPase incubation medium at 37° C. for 1 hour with gentle agitation. It was then washed thoroughly in cold saline, and treated in a 1:10 dilution of ammonium sulfide for 1 minute. The retina was then washed in […] to remove sulfide. The retina was placed in a small drop of liquid on a saline-coated slide. […] The retina was put in a layer of Perma Fluor® covered with a cover glass. Glomerular buds (tiny popcorn) upon the surface of the regina, fan shaped neovascular fronds, and ridges (vascular complexes that cause a distinct elongate elevation of the retinal surface, and which usually contain several vessels running parallel to the ciliary body) were identified.
# Criteria for scoring neovascular intensity were as follows: 0: Nothing; 1: <5 buds; 2: >5 buds, or a frond; 3: Ridge<half of quadrant; or 4: Ridge>half of quadrant. The retinal neovascular scores were equal to the sum of quadrant scores. […]
# [3] = tested on: human retinal pericytes (HRPC); test: Human retinal pericyte proliferation assay (Methylene blue, OD650); format: cell-based; settings: 5% FBS
# Protocol: In addition to studies with primary cell cultures of bovine retinal pericytes described above, experiments were performed with a human cell line obtained from Clonetics (San Diego, Calif.) of retinal pericytes (catalog no. CC-2542 PyCRt). These human retinal pericytes (HRPC) were cultured in Dulbecco's modified Eagle's medium (DMEM, Gibco BRL, Grand Island, N.Y.) with 5.6 mM glucose and 20% fetal bovine serum (FBS, Gibco BRL, Grand Island, N.Y.).
# Proliferation assays were performed as follows: HRPC were plated onto 24-well culture plates (3000 cells/well) in 5 or 10% FBS-DMEM with 5.6 mM glucose and incubated overnight. The cells were treated once with vehicle alone or with vehicle and several concentrations of XMP.627 ([SEQ ID NO: 4]), XMP.664 ([SEQ ID NO: 5]), XMP.679 ([SEQ ID NO: 3]), or XMP.728 ([SEQ ID NO: 6]) for 5 or 6 days. The medium was not changed, nor were additional amounts of test compounds added as described in the experiments of part A above. The cells were fixed and stained with Methylene blue and proliferation assayed by observation at OD650.
# [4] = tested on: bovine retinal endothelial cells (BREC); test: Cell growth assay (DNA content) in bovine retinal endothelial cells; format: cell-based
# Protocol: Primary cultures of bovine retinal endothelial cells (BREC) were isolated by homogenization and a series of filtration steps as described in King et al., J. Clin. Invest., 1985, 75:1028-36. BREC were subsequently cultured with endothelial cell basal medium (EBM; Clonetics, San Diego, Calif.). supplemented with 10% plasma-derived horse serum (PDHS), 50 mg/l heparin, and 50 μg/ml endothelial cell growth factor (ECGF, Roche, Indianapolis, Ind.). Cells were characterized for homogeneity by their immunoreactivity with anti-factor VIII antibody. Cells remained morphologically unchanged under these conditions, as confirmed by light microscopy. Only cells from passages 2 through 7 were used for the experiments.
# A cell growth assay was performed as follows: Cells were plated onto 12-well culture plates and incubated overnight. The cells were treated with vehicle, vascular endothelial growth factor (VEGF, R & D Systems, Minneapolis, Minn.) at 25 ng/ml, serum, compounds, or combinations thereof. The medium is changed during the incubation period, with fresh medium and fresh test compound added every 2 days. After incubation for indicated time period at 37° C., the cells were lysed in 0.1% SDS and DNA content was measured by means of Hoechst-33258 dye and a fluorometer (model TKO-100, Hoefer Scientific Instruments, San Francisco, Calif.). It has been shown that total cellular DNA content measured in this manner correlates closely with actual cell number as determined by hemocytometer counting of trypsinized cells.
# Determinations were performed in triplicate and all experiments were repeated at least three times. Results are expressed as the mean ±standard deviation, unless otherwise indicated. Statistical analysis employed Student's t-test or analysis of variance to compare quantitative data populations with normal distributions and equal variance. Data were analyzed using the Mann-Whitney rank sum test or the Kruskal-Wallis test for populations with non-normal distributions or unequal variance. A P-value of <0.05 was considered statistically significant.
substance,measurement,setting,value
"XMP.679: BPI-derived peptide derived from BPI domain II, SEQ ID NO: 3 (KLFKAQAKAKG; XMP.679; listed as Homo sapiens)",effect on MAP kinase phosphorylation,[1],increased MAP kinase phosphorylation over time
same,retinal neovascular score (sum of quadrant scores),[2]; 2 mg/kg/day intraperitoneal,7.29
same,retinal neovascular score (sum of quadrant scores),[2]; 6 mg/kg/day intraperitoneal,4.59
same,change of retinal neovascularization score versus vehicle,"[2]; 6 mg/kg, differences not statistically significant",reduced
same,retinal neovascular score (sum of quadrant scores),[2]; 20 mg/kg/day intraperitoneal,5.56
same,effect on HRPC growth,[3]; 10 μg/ml and higher,slight growth inhibitory effect
same,concentration of maximum HRPC proliferation,[3],approximately 5 μg/ml
same,effect on HRPC proliferation,"[3]; approximately 0.5, 1, 5, 8 μg/ml",increased HRPC proliferation in a dose responsive manner
same,effect on DNA content,"[4]; 1 μg/ml compound, with and without VEGF",did not have a significant effect
same,effect on VEGF-dependent growth,[4]; VEGF 25 ng/ml plus 1 μg/ml compound,had no effect
same,effect on VEGF-dependent growth,[4]; VEGF 25 ng/ml plus 5 and 15 μg/ml compound,totally prevented VEGF-dependent growth
same,effect on growth,"[4]; compound alone, 15 μg/ml, not statistically significant",slight growth inhibitory effect
